Measured values published in US20220251124A1, “3,5-BIS(PHENYL)-1H-HETEROARYL DERIVATIVES AS MEDICAMENTS” (INSTITUTE OF BIOTECHNOLOGY CAS, V.V.I., priority 2019, published 2022).

Tests used:
Type in all cases: cell-based
MDA-MB-231 [1] = assay: cell cycle distribution, Vybrant DyeCycle Violet, flow cytometry; settings: 1 μM
Experimental: (§1) In order to define the effect on cellular level, we investigated the effect of compound 1 and 2 at non-cytotoxic concentrations of the drugs (1 μM) on cell cycle. Cells were cultivated with the compounds for 24 and 48 hrs and then stained with Vybrant DyeCycle VioletReady Flow reagent (ThermoFisher Scientific) that binds to DNA and analyzed by Flow cytometry and Kaluza program to define the proportions of G1,S and G2/M phases of cell cycle. It is evident that both compounds lead to accumulation of cells in G1 phase if the cell cycle, which become more prominent at later time points (see Table 12, 13).

MCF7 [2] = assay: as above; settings: 1 μM
Experimental: as §1

MDA-MB-231 [3] = assay: annexin V/PI staining, cell death induction, 48 hrs
Experimental: This effect seems to be based mainly on the cytostatic effect of compound 1. To define the ability to kill cells, cell death-inducing potency (cytotoxic efficacy) of DFX and compound 1 have been tested via annexin V/PI staining commonly used as a measure of apoptotic/necrotic cell death. Briefly, cells were seeded in 12-well plate at 100,000 per well, incubated with the selected compounds for 48 hours, then floating cells were spun, adherent cells trypsinized and spun as well followed by the staining with AnnexinV-FITC and PI probes. Cells were then washed with PBS and measured via Fluorescence Activated Sorter.
Since compound 1 is an iron chelator, we have evaluated the effect of pre-loading compound 1 with iron at a 2:1 ratio and then applying it to the cells, followed by measurement of cell death using the Annexin V/PI staining as in example 4.

MDA-MB-231 [4] = assay: mitochondrial ROS, mitoSOX probe, flow cytometry
Experimental: (§2) The effect of compound 1 on generation of mitochondrial reactive oxygen species (ROS) was evaluated in MCF7 and MDA-MB-231 cells using a specific mitochondrially targeted probe mitoSOX (ThermoFisher Scientific) that measures mostly mitochondrial superoxide and upon binding becomes fluorescent. Cells treated with compound 1 for the described time interval were stained with the probe and then analyzed via Flow cytometry.

MCF7 [5] = assay: mitochondrial ROS, mitoSOX probe, flow cytometry
Experimental: as §2

[6] = test system: MCF7 cells stably transfected with KEIMA; assay: mitophagy induction, KEIMA reporter; settings: 24 hours
Experimental: (§3) The effect of compounds 1 and 2 on mitophagy induction was assessed in MCF7 and MDA-MB-231 cells using the reporter protein KEIMA. The excitation spectra of KEIMA changes according to the mitochondrial pH, having an excitation peak at 440 nm atr pH>6 and at 586 at pH<5, with a second excitation peak remaining constant at 620 nm. Therefore, a decrease in the 440 nm/586 nm fluorescence ratio indicates mitochondrial acidification. MCF7 and MDA-MB-231 cells stably transfected with KEIMA were incubated with compound 1 for 24 hours and their fluorescence at both excitation wavelengths was measured by flow cytometry.

[7] = test system: MDA-MB-231 cells stably transfected with KEIMA; assay: mitophagy induction, KEIMA reporter; settings: 24 hours
Experimental: as §3

In the case of `O=C(NCCCCCCCCCC[P+](c1ccccc1)(c1ccccc1)c1ccccc1)c1ccc(-n2nc(-c3ccccc3O)nc2-c2ccccc2O)cc1` [Compound 1, (10-(4-(3,5-bis(2-hydroxyphenyl)-1H-1,2,4-triazol-1-yl)benzamido)decyl) triphenylphosphonium Chloride], the “proportion of cells in G1” value (MDA-MB-231 [1]; 24 hrs) was 64.6 (2.0), the “proportion of cells in G2” value (MDA-MB-231 [1]; 24 hrs) was 27.7 (2.3) and the “proportion of cells in S” value (MDA-MB-231 [1]; 24 hrs) was 7.7. For the same molecule, the “proportion of cells in G1” value (MDA-MB-231 [1]; 48 hrs) was 65.0 (4.1), the “proportion of cells in G2” value (MDA-MB-231 [1]; 48 hrs) was 25.2 (3.3) and the “proportion of cells in S” value (MDA-MB-231 [1]; 48 hrs) was 9.8. The “proportion of cells in G1” value (MCF7 [2]; 24 hrs) was 82.8 (1.6), the “proportion of cells in G2” value (MCF7 [2]; 24 hrs) was 13.2 and the “proportion of cells in S” value (MCF7 [2]; 24 hrs) was 4.0. For the same molecule, the “proportion of cells in G1” value (MCF7 [2]; 48 hrs) was 75.8 (2.1), the “proportion of cells in G2” value (MCF7 [2]; 48 hrs) was 12.4 (2.5) and the “proportion of cells in S” value (MCF7 [2]; 48 hrs) was 11.9 (2.3). For the same molecule, the “dead cells (AnnexinV/PI)” value (MDA-MB-231 [3]; 5 μM) was 53.5 (23.1) %, the “dead cells (AnnexinV/PI)” value (MDA-MB-231 [3]; 5 μM, +Fe^+3 (pre-loaded with iron at a 2:1 ratio)) was 15.9 (2.7) % and the “dead cells (AnnexinV/PI)” value (MDA-MB-231 [3]; 5 μM, alone) was 61.1 (18.8) %. For the same molecule, the “dead cells (AnnexinV/PI)” value (MDA-MB-231 [3]; 10 μM, +Fe^+3 (pre-loaded with iron at a 2:1 ratio)) was 22.4 (6.1) %, the “dead cells (AnnexinV/PI)” value (MDA-MB-231 [3]; 10 μM, alone) was 88.2 (5.8) % and the MitoSOX mean fluorescence (MDA-MB-231 [4]; 5 min, MDA-MB-231 (0 min = 100)) was 134.7 (36.9). The MitoSOX mean fluorescence (MDA-MB-231 [4]; 10 min, MDA-MB-231) was 196.7 (41.5), the MitoSOX mean fluorescence (MDA-MB-231 [4]; 15 min, MDA-MB-231) was 284.7 (103.2) and the MitoSOX mean fluorescence (MDA-MB-231 [4]; 30 min, MDA-MB-231) was 379.1 (76.9). The MitoSOX mean fluorescence (MDA-MB-231 [4]; 60 min, MDA-MB-231) was 439.1 (83.0), the MitoSOX mean fluorescence (MDA-MB-231 [4]; 120 min, MDA-MB-231) was 588.2 (14.11) and the MitoSOX mean fluorescence (MDA-MB-231 [4]; 180 min, MDA-MB-231) was 560.8 (27.5). For the same molecule, the MitoSOX mean fluorescence (MDA-MB-231 [4]; 240 min, MDA-MB-231) was 612.5 (37.5), the MitoSOX mean fluorescence (MCF7 [5]; 5 min, MCF7 (0 min = 100)) was 176.5 (15.0) and the MitoSOX mean fluorescence (MCF7 [5]; 10 min, MCF7) was 177.6 (26.1). For the same molecule, the MitoSOX mean fluorescence (MCF7 [5]; 15 min, MCF7) was 191.6 (47.0), the MitoSOX mean fluorescence (MCF7 [5]; 30 min, MCF7) was 230.8 (85.2) and the MitoSOX mean fluorescence (MCF7 [5]; 60 min, MCF7) was 235.9 (99.3). The MitoSOX mean fluorescence (MCF7 [5]; 120 min, MCF7) was 171.1 (17.6), the MitoSOX mean fluorescence (MCF7 [5]; 180 min, MCF7) was 165.4 (8.9) and the MitoSOX mean fluorescence (MCF7 [5]; 240 min, MCF7) was 207.7 (18.5). The “KEIMA 440 nm/586 nm fluorescence ratio” value ([6]; 1.5 μM) was 1.01 (0.14), the “KEIMA 440 nm/586 nm fluorescence ratio” value ([6]; 2.5 μM) was 0.99 (0.13) and the “KEIMA 440 nm/586 nm fluorescence ratio” value ([6]; 5 μM) was 0.86 (0.15). For the same molecule, the “KEIMA 440 nm/586 nm fluorescence ratio” value ([6]; 10 μM) was 0.71 (0.25), the “KEIMA 440 nm/586 nm fluorescence ratio” value ([7]; 1.5 μM) was 0.81 (0.02) and the “KEIMA 440 nm/586 nm fluorescence ratio” value ([7]; 2.5 μM) was 0.81 (0.03). The “KEIMA 440 nm/586 nm fluorescence ratio” value ([7]; 5 μM) was 0.76 (0.10) and the “KEIMA 440 nm/586 nm fluorescence ratio” value ([7]; 10 μM) was 0.50 (0.04).
